Values of other authors in patent US6419959B1, “Galenic composition containing opioid antagonists” (Klinge Pharma GmbH, priority 1996, dated 2002).
Where two headings read alike, the source gives them in different places.

Key:
[1] = metabolites of naloxone present in the blood
[2] = test system: patients with opioid-induced constipation; details: oral, maximally administered dose 12 mg
patients = details: oral
[3] = test system: patients with opioid-induced constipation; details: oral

CN1CC[C@]23c4c5ccc(O)c4O[C@H]2[C@@H](O)C=C[C@H]3[C@H]1C5 [morphine]
patients in whom constipation arises during treatment (patients given morphine): approximately 85%

C=CCN1CC[C@]23c4c5ccc(O)c4O[C@H]2[C@H](O)CC[C@@]3(O)[C@H]1C5 [β-naloxol]
effectiveness of metabolite [1]: not effective or only weakly effective

C=CCN1CC[C@]23c4c5ccc(O[C@@H]6O[C@H](C(=O)O)[C@@H](O)[C@H](O)[C@H]6O)c4O[C@H]2[C@H](O)CC[C@@]3(O)[C@H]1C5 [β-naloxol-3-glucuronide]
effectiveness of metabolite [1]: not effective or only weakly effective

C=CCN1CC[C@]23c4c5ccc(O)c4O[C@H]2C(=O)CC[C@@]3(O)[C@H]1C5 [naloxone]
effect on the gastrointestinal motility [2]: not determinable in any of the treated patients | neutralisation of the constipating effect of loperamide (healthy probands; intravenously applied, 40 μg/kg/hr in 3 hr): could neutralize the constipating effect of loperamide | neutralisation of the constipating effect of loperamide (healthy probands; oral administration of 16 or 32 mg): could neutralize the constipating effect of loperamide | effect on constipation (patients; up to 10% naloxone dose with respect to the opioid dose): No effect was determinable | effect on constipation (patients; very high dose range 20% to 40% of the opioid dose): neutralization of constipation | response to the treatment (neutralisation of constipation) ([3]; doses of up to 16 mg, three patients): two of the three patients responded | neutralisation of constipation in the other patient (non-responder) ([3]; increase in dose of up to 24 mg within 3 hours): constipation could not be neutralized | dose-dependent maximal naloxone plasma concentrations ([3]; plasma level determinations): up to 7.9 ng/ml

C=CCN1CC[C@]23c4c5ccc(O[C@@H]6O[C@H](C(=O)O)[C@@H](O)[C@H](O)[C@H]6O)c4O[C@H]2C(=O)CC[C@@]3(O)[C@H]1C5 [naloxone-3-glucuronide]
effectiveness of metabolite [1]: not effective or only weakly effective
